Measurements published in US10428028B2, “HDAC inhibitors” (BIOMARIN PHARMACEUTICAL INC., priority 2013, dated 2019).

How the values were obtained:
[1] = Brain penetration studies; format: in vivo; conditions: C57/BL6/J, mouse; mice, s.c. 5 or 50 mg/kg or i.v. 5 mg/kg; Cmax(brain)/Cmax(plasma); read-out: BPR (brain/plasma ratio)
Description: Test compounds were prepared at either 0.5 mg/ml or 5 mg/ml in 30% hydroxypropyl-β-cyclodextrin, 100 mM sodium acetate pH 5.5, 5% DMSO. C57/BL6/J mice were dosed s.c. at 5 mg/kg or 50 mg/kg, or i.v. at 5 mg/kg. Animals were euthanized at pre-dose, 5, 15, 30 min, 1, 2 and 4 hours post-dose and plasma and brain obtained. Three animals per dose per time points were used. The levels of compound in the plasma and brain were determined by standard LC/MS/MS methods. Brain/plasma ratio (BPR) was calculated as the ratio of the Cmax(brain)/Cmax(plasma). The results are shown in Table 5, where IA corresponds to a BPR less than 0.1, D is between 0.1 and 0.2, C is 0.2 to 0.5, B comprises 0.5 to 1 and A is greater than 1.

HDAC2 = HDAC2 (Homo sapiens (Human), UniProt Q92769); assay: HDAC enzyme inhibition assay (Fluor-de-Lys), HDAC2; format: biochemical; conditions: 2 hours pre-incubation
HDAC2, sequence (Q92769 whole entry): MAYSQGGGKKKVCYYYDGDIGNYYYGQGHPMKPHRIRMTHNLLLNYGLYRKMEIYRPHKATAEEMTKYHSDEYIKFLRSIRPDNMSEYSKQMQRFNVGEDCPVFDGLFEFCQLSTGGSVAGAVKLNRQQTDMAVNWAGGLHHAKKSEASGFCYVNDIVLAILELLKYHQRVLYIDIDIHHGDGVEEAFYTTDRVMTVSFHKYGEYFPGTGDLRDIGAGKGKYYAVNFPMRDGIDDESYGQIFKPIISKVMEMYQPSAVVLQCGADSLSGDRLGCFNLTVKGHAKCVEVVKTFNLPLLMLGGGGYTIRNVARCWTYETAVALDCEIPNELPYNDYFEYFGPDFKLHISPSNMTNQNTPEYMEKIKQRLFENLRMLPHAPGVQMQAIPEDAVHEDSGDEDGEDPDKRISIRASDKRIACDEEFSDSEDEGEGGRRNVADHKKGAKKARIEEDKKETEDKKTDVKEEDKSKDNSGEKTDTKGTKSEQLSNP
Description: The HDAC activity inhibition assay was performed as follows to determine the ability of a test compound to inhibit HDAC enzymatic activity. Serial dilutions of HDAC inhibitors were prepared in HDAC assay buffer (25 mM Tris/HCl, pH 8.0, 137 mM NaCl, 2.7 mM KCl, 1 mM MgCl2, pH 8) in 96-well assay plates (Fisher scientific, #07-200-309) and were pre-incubated for 2 hours at room temperature in the presence of 125 μg/ml BSA and purified HDAC1 (BPS Bioscience, San Diego, Calif., #50051), HDAC2 (BPS Bioscience, #50053), or HDAC3/NcoR2 (BPS Bioscience, #50003) at concentrations of 1.25, 1.32, and 0.167 μg/mL, respectively. Following pre-incubation, Fluor-de-Lys™ substrate (Enzo Life Sciences, Plymouth Meeting, Pa., BML-KI104-0050) was added to a final concentration of 10 μM and plates were further incubated for 30 minutes at room temperature. The enzymatic reaction was stopped by addition of Trichostatin A (Sigma-Aldrich, St Louis, Mo., #T8552, final concentration: 100 nM) and trypsin (MP Biomedicals, Solon, Ohio, #02101179) was added to reach a final concentration of 100 μg/mL. After a 15 minute incubation at room temperature, fluorescence was recorded using a Spectramax M2 fluorometer (Molecular Devices, Sunnyvale, Calif.) with excitation at 365 nm and emission at 460 nm. IC50 values were calculated by using a sigmoidal dose-response (variable slope) equation in GraphPad Prism® 5 for Windows (GraphPad Software, La Jolla, Calif.). Results for selected compounds in the HDAC activity inhibition assay are presented in Table 5 (IC50 ranges: IA>20 μM, A<1 μM, 1<B<5 μM, 5<C<10 μM, 10<D<20 μM, ND: not determined).

[2] = test system: GM 15850 (lymphoblastoid cells line) cells; assay: In-cell deacetylase inhibition assay (DAC assay); format: cell-based; conditions: Homo sapiens, GM15850; GM 15850 cells, 4 h incubation
Description: GM 15850 (lymphoblastoid cells line) cells were seeded in 96-well plates at an appropriate density (100,000 cells/well) in 90 μL, RPMI1640 medium containing 10% v/v fetal bovine serum (FBS), 1% v/v penicillin/streptomycin, and 1% v/v L-glutamine. Compound dilutions were made in 100% DMSO followed by parallel dilution in media with 2% DMSO. 10 μl of the compound dilutions were added to the cells to achieve the desired concentrations. The final concentration of DMSO in each well was 0.2%. The cells were incubated for 4 h at 37° C. with 5% CO2. After incubation, the cells were centrifuged down and the supernatant was removed. The cell pellets were washed with 100 μL, phosphate-buffered saline (PBS) and then lysed with 45 μL, lysis buffer (HDAC assay buffer at pH 8.0 (25 mM Tris/HCl, 137 mM NaCl, 2.7 mM KCl, 1 mM MgCl2)+1% v/v Igepal CA-630). To initiate the reaction, the HDAC substrate KI-104 (Enzo Life Sciences, Farmingdale, N.Y.) was added to a final concentration of 50 μM. The reaction was stopped after 30 min incubation by addition of 50 μL, developer (6 mg/mL trypsin in HDAC assay buffer). The reaction was allowed to develop for 30 min at room temperature and the fluorescence signal was detected using a fluorometer (Spectramax M2, Molecular Devices, Sunnyvale, Calif.) with excitation and emission wavelengths of 360 nm and 470 nm respectively. The data was fitted to a sigmoidal dose response equation with variable slope in GraphPad Prism 5.0 (GraphPad Software, La Jolla, Calif.) to determine IC50. Bottom and top of the curve were fixed to the average fluorescence response of control wells with no cells and cells but no compound respectively. IC50's are reported in Table 5, where A stands for IC50 less than 1 μM, B between 1 and 5 μM, C from 5 to 10 μM, D from 10 to 20 μM, and IA for IC50 above 20 μM.

[3] = Acid stability determination; format: physicochemical; conditions: 0.01 M HCl, 50° C., 100 μM
Description: A 100 μM solution of test compound was prepared by dilution of a 10 mM DMSO stock solution in a 0.01 M solution of HCl in deionized water. Immediately after mixing, an aliquot (100 μL) was sampled and analyzed by HPLC/UV. The area under the compound peak was determined and used as the time zero reference point. The remainder of the acid sample was incubated at 50° C. and samples were taken after 2, 4, and 24 hours of incubation. On a few occasions, samples were taken at 30 rather than 24 hours. These were analyzed by the same HPLC/UV method and the area of the peak corresponding to the test compound was measured. Percent remaining at a given time point was then calculated as the ratio of the area under the peak after incubation to that at time zero times 100. In those cases where a 30 hour time point was recorded, the percent remaining at 24 hours was obtained by interpolation of the percent remaining versus time curve assuming a unimolecular process, i.e. a monoexponential decay. Percent remaining after 24 hours incubation are presented in Table 5 below, where A corresponds to more than 60%, B is between 40 and 60%, C covers 20 to 40% and D means less than 20%.

SMILES | Kp [1] | IC50 (HDAC2) [µM] | IC50 [2] [µM] | Acid Stability % Left 24 hr [3]
Nc1ccccc1NC(=O)c1ccc2c(cnn2Cc2cccnc2)c1 [Compound A1] | 0.2 to 0.5 | < 1 | < 1 | –
Nc1ccccc1NC(=O)c1ccc2c(cnn2Cc2ccccc2)c1 [Compound A2] | > 1 | < 1 | < 1 | B (B is between 40 and 60%)
Cn1cc(Cn2ncc3cc(C(=O)Nc4ccccc4N)ccc32)cn1 [Compound A3] | 0.2 to 0.5 | < 1 | < 1 | –
Nc1ccccc1NC(=O)c1ccc2c(cnn2Cc2cncc(F)c2)c1 [Compound A4, N-(2-aminophenyl)-1-((5-fluoropyridin-3-yl)methyl)-1H-indazole-5-carboxamide] | 0.2 to 0.5 | – | < 1 | –
Cc1ccc(Cn2ncc3cc(C(=O)Nc4ccccc4N)ccc32)c(C)n1 [Compound A5] | 0.2 to 0.5 | < 1 | < 1 | –
Nc1cc(F)ccc1NC(=O)c1ccc2c(cnn2Cc2cccnc2)c1 [Compound A6] | – | < 1 | 1 to 5 | A (A corresponds to more than 60%)
Nc1cc(F)ccc1NC(=O)c1ccc2c(cnn2Cc2cncc(F)c2)c1 [Compound A7] | 0.2 to 0.5 | < 1 | 1 to 5 | B (B is between 40 and 60%)
Cc1ccc(Cn2ncc3cc(C(=O)Nc4ccc(F)cc4N)ccc32)c(C)n1 [Compound A8] | – | 1 to 5 | 1 to 5 | A (A corresponds to more than 60%)
Nc1ccccc1NC(=O)c1ccc2c(cnn2Cc2ccc(F)c(F)c2)c1 [Compound A9] | > 1 | < 1 | – | A (A corresponds to more than 60%)
Nc1cc(F)ccc1NC(=O)c1ccc2c(cnn2CC2CC2)c1 [Compound A12] | 0.5 to 1 | 5 to 10 | > 20 | B (B is between 40 and 60%)
Nc1ccccc1NC(=O)c1ccc2nn(Cc3cccnc3)cc2c1 [Compound A13] | < 0.1 | < 1 | < 1 | –
Nc1ccccc1NC(=O)c1ccc2nn(Cc3cncc(F)c3)cc2c1 [Compound A14, N-(2-aminophenyl)-2-((5-fluoropyridin-3-yl)methyl)-2H-indazole-5-carboxamide] | 0.2 to 0.5 | – | < 1 | –
Cc1ccc(Cn2cc3cc(C(=O)Nc4ccccc4N)ccc3n2)c(C)n1 [Compound A15] | < 0.1 | 1 to 5 | < 1 | –
